Results published in patent publication US7157569B2, “Mutation associated with epilepsy” (Bionomics Limited, priority 2000, dated 2007).
Entries after “also recorded” stand apart in the source; their conditions may differ.

Legend:
[1] = biological target: T1, GABAA receptor containing GABRG2(R43Q) (Homo sapiens, UniProt P14867+P18507+P47870, R82Q/T120M/T181S); test: GABA electrophysiological response in Xenopus oocytes, GABRG2(R43Q); type: cell-based; conditions: oocytes expressing GABRG2 or GABRG2(R43Q)
T1 construct: expressed in transfected cells; host or cells: Xenopus laevis oocytes (cRNA injection)
T1 sequence (P14867 28-456): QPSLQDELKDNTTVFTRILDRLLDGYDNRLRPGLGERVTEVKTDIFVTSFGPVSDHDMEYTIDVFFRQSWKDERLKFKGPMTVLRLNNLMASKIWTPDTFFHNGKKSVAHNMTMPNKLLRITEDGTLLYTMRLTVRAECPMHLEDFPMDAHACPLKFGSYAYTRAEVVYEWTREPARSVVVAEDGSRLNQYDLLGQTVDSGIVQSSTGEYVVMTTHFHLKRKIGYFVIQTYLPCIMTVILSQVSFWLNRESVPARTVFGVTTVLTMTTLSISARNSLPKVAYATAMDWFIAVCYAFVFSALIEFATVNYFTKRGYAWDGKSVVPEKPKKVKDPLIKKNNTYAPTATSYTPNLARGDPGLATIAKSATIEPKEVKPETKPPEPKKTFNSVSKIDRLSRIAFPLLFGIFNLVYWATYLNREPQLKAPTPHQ
T1 sequence (P47870 26-512): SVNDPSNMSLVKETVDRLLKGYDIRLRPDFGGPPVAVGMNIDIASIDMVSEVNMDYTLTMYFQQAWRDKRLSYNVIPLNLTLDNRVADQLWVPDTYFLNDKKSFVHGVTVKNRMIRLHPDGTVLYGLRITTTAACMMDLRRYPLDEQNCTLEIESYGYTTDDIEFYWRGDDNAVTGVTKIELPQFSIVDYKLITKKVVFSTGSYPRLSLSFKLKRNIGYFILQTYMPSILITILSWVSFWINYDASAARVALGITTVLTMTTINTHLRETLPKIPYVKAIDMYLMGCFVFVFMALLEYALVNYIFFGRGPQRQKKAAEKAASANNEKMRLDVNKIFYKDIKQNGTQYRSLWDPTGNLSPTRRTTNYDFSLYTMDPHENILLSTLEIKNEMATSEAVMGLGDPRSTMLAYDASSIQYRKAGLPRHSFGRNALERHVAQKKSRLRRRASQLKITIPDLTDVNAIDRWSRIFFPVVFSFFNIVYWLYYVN
T1 sequence (P18507 40-467 isoform P18507-1 R82Q/T120M/T181S): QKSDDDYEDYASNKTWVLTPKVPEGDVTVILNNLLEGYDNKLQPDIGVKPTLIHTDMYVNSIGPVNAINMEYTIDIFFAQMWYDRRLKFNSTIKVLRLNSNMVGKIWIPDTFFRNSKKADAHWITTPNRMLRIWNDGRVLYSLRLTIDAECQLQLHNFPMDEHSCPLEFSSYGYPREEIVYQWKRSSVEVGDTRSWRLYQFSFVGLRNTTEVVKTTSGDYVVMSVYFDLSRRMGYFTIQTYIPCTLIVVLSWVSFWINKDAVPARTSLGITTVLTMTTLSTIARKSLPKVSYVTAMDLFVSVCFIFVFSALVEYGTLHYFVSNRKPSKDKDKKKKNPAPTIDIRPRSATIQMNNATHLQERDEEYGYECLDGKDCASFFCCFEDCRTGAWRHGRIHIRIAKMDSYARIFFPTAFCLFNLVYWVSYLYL
Procedure: (§1) To test the effects of the GABRG2 mutations on GABAA receptor function, electrophysiological analysis of Xenopus laevis oocytes were conducted. cDNAs encoding the GABRA1, GABRB2 and GABRG2 subunits of the human GABAA receptor were subcloned into pcDNA3.1(+). The c245G→A and c1168C→T mutations were introduced separately into GABRG2 of the human GABAA receptor using the QuickChange site directed mutagenesis kit (Stratagene, La Jolla, Calif.). The oligonucleotide represented by SEQ ID NO:50 (5′ GGATATGACAATAAACTTCAGCCTGATATAGGAGTGAAGCC 3′) was used to incorporate the c245G→A mutation, while the oligonucleotide represented by SEQ ID NO:51 (5′ GCGAATTCATTAAATGGTTGCTGATCTTGGGCG 3′) was used to incorporate the c1168C→T mutation. Successful mutagenesis was identified by DNA sequencing. Wild-type and mutant cDNAs were linearised and gel purified and cRNA was made using the T7 RNA polymerase Message Machine in vitro RNA synthesis kit (Ambion). Samples of cRNA were run on denaturing agarose gels to ensure they were the correct size and were not degraded. Xenopus laevis oocytes (stage V or VI) were microinjected with ˜25 ng of cRNA representing the GABAA subunits. A tenfold molar excess of wild-type and mutant GABRG2 was used to promote assembly of the ternary (GABRA1:GABRB2:GABRG2) rather than binary (GABRA1:GABRB2) complex. […]

[2] = biological target: T2, GABRA1:GABRB2 GABAA receptor (Homo sapiens, UniProt P14867+P47870); test: GABA current response in Xenopus laevis oocytes, GABRA1:GABRB2:water; type: cell-based; conditions: 1:1:10 GABRA1:GABRB2:water injection ratio
T2 construct: expressed in transfected cells; host or cells: Xenopus laevis oocytes (cRNA injection)
T2 sequence (P14867 28-456): T1 sequence (P14867 28-456)
T2 sequence (P47870 26-512): T1 sequence (P47870 26-512)
Procedure: as §1

[3] = biological target: T3, GABRA1:GABRB2:GABRG2 wild-type GABAA receptor (Homo sapiens, UniProt P14867+P18507+P47870); test: GABA current response in Xenopus laevis oocytes, wild-type GABRG2; type: cell-based; conditions: 1:1:10 ratio with wild-type GABRG2
T3 construct: expressed in transfected cells; host or cells: Xenopus laevis oocytes (cRNA injection)
Procedure: as §1

[4] = test system: GABRA1:GABRB2:GABRG2(Q351X) GABAA receptor; test: GABA current response in Xenopus laevis oocytes, Q351X mutant; type: cell-based, human; conditions: 1:1:10 GABRA1:GABRB2:GABRG2(Q351X) cRNA injection ratio
Procedure: as §1

[5] = biological target: T4, GABRA1 and GABRB2 (α1β2) GABAA receptor (Homo sapiens, UniProt P14867+P47870); test: Zn2+ sensitivity of GABA-activated currents in Xenopus laevis oocytes, GABRA1 and GABRB2 alone; type: cell-based; set-up: expressed in transfected cells; host or cells: Xenopus laevis oocytes (cRNA injection)
T4 sequence (P14867 28-456): T1 sequence (P14867 28-456)
T4 sequence (P47870 26-512): T1 sequence (P47870 26-512)
Procedure: as §1

[6] = biological target: T5, wild-type (α1β2γ2) GABAA receptor (Homo sapiens, UniProt P14867+P18507+P47870); test: Zn2+ sensitivity of GABA-activated currents in Xenopus laevis oocytes, wild-type channels; type: cell-based; set-up: expressed in transfected cells; host or cells: Xenopus laevis oocytes (cRNA injection); conditions: Zn2+ 10 μM, n=9
Procedure: as §1

[7] = biological target: T5, wild-type (α1β2γ2) GABAA receptor; set-up: expressed in transfected cells; conditions: correct assembly of GABRA1, GABRB2 and GABRG2; Draguhn et al, 1990; cited from earlier work
[8] = biological target: T6, mutant [α1β2γ2 (R43Q)] GABAA receptor (Homo sapiens, UniProt P14867+P18507+P47870, R82Q/T120M/T181S); test: Zn2+ sensitivity of GABA-activated currents in Xenopus laevis oocytes, R43Q mutant channels; type: cell-based
T6 construct: expressed in transfected cells; host or cells: Xenopus laevis oocytes (cRNA injection)
T6 sequence (P14867 28-456): T1 sequence (P14867 28-456)
T6 sequence (P47870 26-512): T1 sequence (P47870 26-512)
T6 sequence (P18507 40-467 isoform P18507-1 R82Q/T120M/T181S): T1 sequence (P18507 40-467 isoform P18507-1 R82Q/T120M/T181S)
Procedure: as §1

[9] = biological target: T4, GABRA1 and GABRB2 (α1β2) GABAA receptor; set-up: expressed in transfected cells; conditions: GABRA1 and GABRB2 alone; Draguhn et al, 1990; cited from earlier work
[10] = test system: GABAA receptor from 50:50 mixture of GABRG2 and GABRG2(R43Q); test: Diazepam potentiation in oocytes injected with 50:50 mixture of GABRG2 and GABRG2(R43Q) cRNA; type: cell-based, human; conditions: n=8
Procedure: as §1, with “The oligonucleotide represented by SEQ ID NO:50 (5′ GGATATGACAATAAACTTCAGCCTGATATAGGAGTGAAGCC 3′) was used to incorporate the c245G→A mutation, while the oligonucleotide represented by SEQ ID NO:51 (5′ GCGAATTCATTAAATGGTTGCTGATCTTGGGCG 3′) was used to incorporate the c1168C→T mutation.” left out, “complex. Oocytes were then stored in OR2 buffer (82.5 mM NaCl, 2 mM KCl, 1 mM MgCl2, 5 mM HEPES, pH 7.5, supplemented with 2% foetal bovine serum, 100 U/ml penicillin, 100 μg/ml streptomycin, Life Technologies) and incubated at 18° C. for three to five days to allow for adequate receptor expression.” for “complex.”

[11] = biological target: T7, wild-type GABRA1:GABRB2:GABRG2 (α1β2γ2) GABAA receptor (Homo sapiens, UniProt P14867+P18507+P47870); test: Diazepam potentiation of GABA currents, two-electrode voltage clamp in Xenopus laevis oocytes, wild-type channels; type: cell-based; conditions: GABA 1 μM, diazepam 1 μM
T7 construct: expressed in transfected cells; host or cells: Xenopus laevis oocytes (cRNA injection)
Procedure: as §1, with “The oligonucleotide represented by SEQ ID NO:50 (5′ GGATATGACAATAAACTTCAGCCTGATATAGGAGTGAAGCC 3′) was used to incorporate the c245G→A mutation, while the oligonucleotide represented by SEQ ID NO:51 (5′ GCGAATTCATTAAATGGTTGCTGATCTTGGGCG 3′) was used to incorporate the c1168C→T mutation.” left out, “complex. Oocytes were then stored in OR2 buffer (82.5 mM NaCl, 2 mM KCl, 1 mM MgCl2, 5 mM HEPES, pH 7.5, supplemented with 2% foetal bovine serum, 100 U/ml penicillin, 100 μg/ml streptomycin, Life Technologies) and incubated at 18° C. for three to five days to allow for adequate receptor expression.” for “complex.”

[12] = biological target: T8, mutant GABRA1:GABRB2:GABRG2(R43Q) [α1β2γ2 (R43Q)] GABAA receptor (Homo sapiens, UniProt P14867+P18507+P47870, R82Q/T120M/T181S); test: Diazepam potentiation of GABA currents, two-electrode voltage clamp in Xenopus laevis oocytes, R43Q mutant channels; type: cell-based; conditions: for small, insignificant decrease in GABA current with diazepam, mean±SEM: GABA 1 μM, diazepam 1 μM, R43Q mutant channels, n=17, a decrease, not a potentiation
T8 construct: expressed in transfected cells; host or cells: Xenopus laevis oocytes (cRNA injection)
T8 sequence (P14867 28-456): T1 sequence (P14867 28-456)
T8 sequence (P47870 26-512): T1 sequence (P47870 26-512)
T8 sequence (P18507 40-467 isoform P18507-1 R82Q/T120M/T181S): T1 sequence (P18507 40-467 isoform P18507-1 R82Q/T120M/T181S)
Procedure: To test the effects of the GABRG2 mutations on GABAA receptor function, electrophysiological analysis of Xenopus laevis oocytes were conducted. cDNAs encoding the GABRA1, GABRB2 and GABRG2 subunits of the human GABAA receptor were subcloned into pcDNA3.1(+). The c245G→A and c1168C→T mutations were introduced separately into GABRG2 of the human GABAA receptor using the QuickChange site directed mutagenesis kit (Stratagene, La Jolla, Calif.). […] Successful mutagenesis was identified by DNA sequencing. Wild-type and mutant cDNAs were linearised and gel purified and cRNA was made using the T7 RNA polymerase Message Machine in vitro RNA synthesis kit (Ambion). Samples of cRNA were run on denaturing agarose gels to ensure they were the correct size and were not degraded. Xenopus laevis oocytes (stage V or VI) were microinjected with ˜25 ng of cRNA representing the GABAA subunits. A tenfold molar excess of wild-type and mutant GABRG2 was used to promote assembly of the ternary (GABRA1:GABRB2:GABRG2) rather than binary (GABRA1:GABRB2) complex. Oocytes were then stored in OR2 buffer (82.5 mM NaCl, 2 mM KCl, 1 mM MgCl2, 5 mM HEPES, pH 7.5, supplemented with 2% foetal bovine serum, 100 U/ml penicillin, 100 μg/ml streptomycin, Life Technologies) and incubated at 18° C. for three to five days to allow for adequate receptor expression. Current recordings from oocytes were made using a two-electrode voltage clamp (AxoClamp 2B, Axon Instruments), with recordings made at a holding potential of −80 mV. Electrodes were filled with 3 M KCl and were of 1–2 MΩ resistance. Oocytes were continuously perfused with ND96 solution (96 mM NaCl, 2 mM KCl, 1 mM MgCl2, […] and 5 mM HEPES, pH 7.5). gamma-Aminobutyric acid (GABA; Sigma-Aldrich, Australia) was applied by bath perfusion.

T5 sequence (P18507 40-467 isoform P18507-1 limits assumed, one chain of several): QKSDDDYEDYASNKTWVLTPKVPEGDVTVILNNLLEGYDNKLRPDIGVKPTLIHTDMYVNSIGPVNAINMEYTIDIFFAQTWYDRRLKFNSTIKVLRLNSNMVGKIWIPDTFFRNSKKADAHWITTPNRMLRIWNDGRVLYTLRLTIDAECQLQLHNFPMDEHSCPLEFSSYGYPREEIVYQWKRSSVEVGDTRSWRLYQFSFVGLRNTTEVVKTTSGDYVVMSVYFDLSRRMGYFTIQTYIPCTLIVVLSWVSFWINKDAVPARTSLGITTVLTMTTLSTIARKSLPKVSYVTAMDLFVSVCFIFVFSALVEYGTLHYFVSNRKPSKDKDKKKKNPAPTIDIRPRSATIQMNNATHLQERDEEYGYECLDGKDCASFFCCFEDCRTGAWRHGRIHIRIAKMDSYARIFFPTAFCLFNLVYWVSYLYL
T7 sequence (P18507 40-467 isoform P18507-1 limits assumed, one chain of several): as above
T3 sequence (P18507 40-467 isoform P18507-1 limits assumed, one chain of several): as above

SMILES: NCCCC(=O)O [GABA, gamma-Aminobutyric acid]
- electrophysiological responses to GABA versus wild-type GABRG2 [1]: indistinguishable
- current response to GABA [2]: gave current responses
- current response to GABA [3]: strong current responses
- current response to GABA [4]: abolishes responses to GABA; also recorded: no current response

SMILES: [Zn+2] [Zn^2+]
- GABA-activated current abolished by Zn2+ ([5]; Zn2+ 10 μM, GABA 100 μM, α1β2 alone, n=8): 89±7%
- effect of Zn2+ on GABA-activated currents ([5]; oocytes expressing only GABRA1 and GABRB2): totally abolished
- partial inhibition of the GABA current by Zn2+ [6]: 37±2%
- sensitivity of currents to Zn2+ [7]: significantly less sensitive
- effect of Zn2+ compared with wild-type GABRG2 ([8]; GABRG2(R43Q) versus GABRG2 expressing oocytes): same effect
- partial inhibition of the GABA current by Zn2+ ([8]; Zn2+ 10 μM, R43Q mutant, n=9): 40±5%
- sensitivity of currents to Zn2+ [9]: extremely sensitive

SMILES: CN1C(=O)CN=C(c2ccccc2)c2cc(Cl)ccc21 [diazepam]
- intermediate diazepam potentiation [10]: 129±30%
- increase of GABA currents by diazepam (potentiation), mean±SEM ([11]; n=20, P<0.01): 303±33%
- increase of GABA currents by diazepam (potentiation), mean±SEM ([11]; n=20, P<0.01, listed as Diazepam): 302±33%
- small, insignificant decrease in GABA current with diazepam, mean±SEM [12]: 10±6%
- small, insignificant decrease in GABA current with diazepam, mean±SEM ([12]; listed as Diazepam): 10%±6
- diazepam potentiation ([12]; receptors containing the GABRG2(R43Q) subunit): completely abolished
